# Data published in ChEMBL document CHEMBL3880411, “Multikinase inhibitors for use in the treatment of cancer” (2009).
# Activity calls are given as the source filed them. No cut-off for these calls is given here.
# How the values were obtained:
# [1] = molecular target: Tyrosine-protein kinase Lck (Homo sapiens) (UniProt P06239); experiment: Inhibition of human Lck assessed as remaining activity at 1 uM after 40 mins in presence of [gamma33P-ATP] by scintillation counting
# [2] = Cytotoxicity against human MCF7 cells assessed as reduction in cell viability after 96 hrs by CellTiter-Glo luminescence assay or methylene blue assay; format: functional, cell-based; conditions: MCF7, 96 h
# [3] = molecular target: Tyrosine-protein kinase Yes (Homo sapiens) (UniProt P07947); experiment: Inhibition of human Yes assessed as remaining activity at 1 uM after 40 mins in presence of [gamma33P-ATP] by scintillation counting
# Sequence of Tyrosine-protein kinase Yes (Homo sapiens) (P07947 2-543 limits assumed): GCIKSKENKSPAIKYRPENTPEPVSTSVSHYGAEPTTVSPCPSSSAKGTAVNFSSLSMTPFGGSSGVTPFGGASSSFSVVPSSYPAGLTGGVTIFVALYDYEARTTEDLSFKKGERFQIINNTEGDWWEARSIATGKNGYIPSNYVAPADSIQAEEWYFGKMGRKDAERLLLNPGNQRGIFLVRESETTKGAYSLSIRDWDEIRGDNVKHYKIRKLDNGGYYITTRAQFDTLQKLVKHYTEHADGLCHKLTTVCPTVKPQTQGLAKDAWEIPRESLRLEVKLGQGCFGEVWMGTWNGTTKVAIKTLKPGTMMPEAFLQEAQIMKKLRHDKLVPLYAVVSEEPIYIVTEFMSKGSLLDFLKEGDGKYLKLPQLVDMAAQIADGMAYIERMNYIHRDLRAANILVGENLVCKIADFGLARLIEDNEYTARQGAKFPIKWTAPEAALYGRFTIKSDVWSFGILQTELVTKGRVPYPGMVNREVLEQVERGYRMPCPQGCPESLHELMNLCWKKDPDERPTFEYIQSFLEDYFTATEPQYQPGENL
# [4] = Cytotoxicity against human AU565 cells assessed as reduction in cell viability after 96 hrs by CellTiter-Glo luminescence assay or methylene blue assay; format: functional, cell-based; conditions: AU565, 96 h
# [5] = Cytotoxicity against human HCT116 cells expressing K-ras G13D mutant assessed as reduction in cell viability after 96 hrs by CellTiter-Glo luminescence assay or methylene blue assay; format: functional, cell-based; conditions: HCT-116, 96 h
# [6] = Cytotoxicity against human SK-MEL-31 cells expressing B-RAF V600E mutant assessed as reduction in cell viability after 96 hrs by CellTiter-Glo luminescence assay or methylene blue assay; format: functional, cell-based
# LOX = experiment: Antitumor activity against human LOX cells expressing B-RAF V600E mutant xenografted in athymic mouse assessed as tumor regression at 10 to 40 mg/kg, iv administered for two weekly rounds of five injections daily with two-day rest period between the rounds measured twice weekly from first day of treatment; format: functional, organism-based
# [7] = molecular target: Tyrosine-protein kinase Fyn (Homo sapiens) (UniProt P06241); experiment: Inhibition of human Fyn assessed as remaining activity at 1 uM after 40 mins in presence of [gamma33P-ATP] by scintillation counting
# Sequence of Tyrosine-protein kinase Fyn (Homo sapiens) (P06241 2-537 limits assumed): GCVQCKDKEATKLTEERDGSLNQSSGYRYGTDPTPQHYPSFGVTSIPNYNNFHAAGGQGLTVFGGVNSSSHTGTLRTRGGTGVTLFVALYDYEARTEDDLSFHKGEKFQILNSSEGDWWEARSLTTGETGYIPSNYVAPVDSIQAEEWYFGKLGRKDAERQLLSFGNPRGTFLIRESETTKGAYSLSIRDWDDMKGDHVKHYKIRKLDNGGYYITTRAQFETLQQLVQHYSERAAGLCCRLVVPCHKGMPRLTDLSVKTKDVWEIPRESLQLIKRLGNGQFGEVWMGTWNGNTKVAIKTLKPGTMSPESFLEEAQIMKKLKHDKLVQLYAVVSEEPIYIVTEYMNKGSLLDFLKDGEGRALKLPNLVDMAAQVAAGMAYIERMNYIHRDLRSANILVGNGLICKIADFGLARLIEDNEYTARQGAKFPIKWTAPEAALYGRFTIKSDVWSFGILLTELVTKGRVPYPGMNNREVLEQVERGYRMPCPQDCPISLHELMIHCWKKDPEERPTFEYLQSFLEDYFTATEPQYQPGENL
# [8] = molecular target: Receptor-type tyrosine-protein kinase FLT3 (Homo sapiens) (UniProt P36888); experiment: Inhibition of human Flt3 assessed as remaining activity at 0.1 uM after 40 mins in presence of [gamma33P-ATP] by scintillation counting
# Sequence of Receptor-type tyrosine-protein kinase FLT3 (Homo sapiens) (P36888 whole entry): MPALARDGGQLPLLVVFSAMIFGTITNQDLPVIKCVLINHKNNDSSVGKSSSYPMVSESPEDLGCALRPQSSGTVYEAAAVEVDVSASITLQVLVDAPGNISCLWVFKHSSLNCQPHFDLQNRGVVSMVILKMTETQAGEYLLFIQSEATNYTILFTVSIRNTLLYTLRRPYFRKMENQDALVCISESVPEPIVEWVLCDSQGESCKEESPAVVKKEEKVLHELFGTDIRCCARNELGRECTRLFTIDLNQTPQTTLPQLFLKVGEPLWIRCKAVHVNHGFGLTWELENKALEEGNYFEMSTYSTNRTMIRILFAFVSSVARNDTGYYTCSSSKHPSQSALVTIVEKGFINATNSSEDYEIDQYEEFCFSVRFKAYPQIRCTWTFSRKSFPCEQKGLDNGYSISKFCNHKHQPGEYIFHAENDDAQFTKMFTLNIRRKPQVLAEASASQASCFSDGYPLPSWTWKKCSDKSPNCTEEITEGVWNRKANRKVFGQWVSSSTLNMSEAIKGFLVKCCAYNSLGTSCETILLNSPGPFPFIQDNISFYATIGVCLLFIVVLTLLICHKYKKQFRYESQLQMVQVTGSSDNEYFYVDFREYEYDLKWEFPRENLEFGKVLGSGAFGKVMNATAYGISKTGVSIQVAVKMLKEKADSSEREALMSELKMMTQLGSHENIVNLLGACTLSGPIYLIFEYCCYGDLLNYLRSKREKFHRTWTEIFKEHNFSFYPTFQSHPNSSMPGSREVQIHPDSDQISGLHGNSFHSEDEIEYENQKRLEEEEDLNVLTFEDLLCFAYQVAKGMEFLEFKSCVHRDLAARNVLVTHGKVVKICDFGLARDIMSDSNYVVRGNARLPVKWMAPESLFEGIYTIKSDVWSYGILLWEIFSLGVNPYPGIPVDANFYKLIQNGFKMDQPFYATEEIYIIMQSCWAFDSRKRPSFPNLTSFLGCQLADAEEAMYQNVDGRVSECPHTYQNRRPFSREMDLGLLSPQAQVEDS
# [9] = Antiproliferative activity against human U266 cells after 96 hrs by MTT assay; format: functional, cell-based; conditions: U-266, 96 h
# [10] = Cytotoxicity against human LoVo cells expressing K-ras G13D mutant assessed as reduction in cell viability after 96 hrs by CellTiter-Glo luminescence assay or methylene blue assay; format: functional, cell-based
# Sequence of Tyrosine-protein kinase Lck (Homo sapiens) (P06239 2-509 limits assumed): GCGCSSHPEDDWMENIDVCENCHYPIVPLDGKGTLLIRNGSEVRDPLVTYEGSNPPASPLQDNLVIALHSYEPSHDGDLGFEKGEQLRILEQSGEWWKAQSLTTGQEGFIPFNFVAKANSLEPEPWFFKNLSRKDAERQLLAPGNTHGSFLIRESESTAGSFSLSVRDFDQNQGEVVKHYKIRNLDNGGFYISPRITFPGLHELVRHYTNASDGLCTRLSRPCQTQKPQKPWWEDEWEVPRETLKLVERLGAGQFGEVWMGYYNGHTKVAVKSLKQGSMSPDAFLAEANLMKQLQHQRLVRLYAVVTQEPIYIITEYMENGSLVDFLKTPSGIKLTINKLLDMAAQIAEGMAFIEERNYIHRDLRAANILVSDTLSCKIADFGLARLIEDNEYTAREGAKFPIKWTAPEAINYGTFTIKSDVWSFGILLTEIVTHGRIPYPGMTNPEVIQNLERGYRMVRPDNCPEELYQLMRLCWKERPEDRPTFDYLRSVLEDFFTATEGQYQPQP
structure (smiles),measurement,setting,value
CCNc1cc(O)c2c(c1)/C=C/C[C@H](O)[C@H](O)C(=O)/C=C\[C@@H](C)[C@H](C)OC2=O [E-6201],Activity,[1],0%
same,IC50,[2],> 10000 nM
same,Activity,[3],8%
same,IC50,[4],> 10000 nM
same,IC50,[5],423 nM
same,IC50,[6],225 nM
same,Activity,LOX,Active
same,Activity,[7],0%
same,Activity,[8],33%
same,IC50,[9],950 nM
same,IC50,[10],132 nM
